Measured values published in patent US8637484B2, “Modulation of growth hormone receptor expression and insulin-like growth factor expression” (Antisense Therapeutic Limited, priority 2003, dated 2014).
Marks after values point to notes of the source that are not given here. In the oligonucleotide strings, read from the 5' end, every base follows the letter of its sugar. An asterisk marks phosphorothioate; unmarked linkages are phosphodiester. Other units and linkages are bracketed, terminal groups are in braces. A string of capitals states the bases alone. e = 2'-O-(2-methoxyethyl) (MOE); [5mC] = 5-methylcytosine; d = 2'-deoxy (DNA)

Key:
Assay type in all cases: in vivo, mouse
[1] = system: growth hormone receptor mRNA; test: Growth hormone receptor mRNA levels in liver, additional 1 week study; details: one-week study
Method: Male Balb/C(a) mice were prepared and grouped for analysis as in Example 18 above.
Animals were treated and serum IGF-I levels were measured as in Example 18 above. Briefly, for the one-week study, mice were given a subcutaneous dose of saline every second day, and mismatch control or antisense with administration on days 0, 2, 4, 6. On day 7, the animals were anaesthetized with pentobarbital and non-fasting blood samples collected exactly 5 minutes later from the retrobulbar plexus through heparinized capillary tubes under light ether anesthesia. Serum IGF-I measurement was done by radioimmunoassay at day 7.
Growth hormone receptor mRNA levels in liver tissue samples from treated and untreated mice in this one-week study were assayed. The growth hormone receptor antisense inhibitor ISIS 227446 reduced growth hormone receptor mRNA levels in liver after the one-week study by 72% at the 50 mg/kg dose, relative to saline control (p<0.0001). The 30 mg/kg dose of ISIS 227446 yielded a 50% decrease in growth hormone receptor mRNA (p<0.0001). The unrelated control oligonucleotide ISIS 260120, at 50 mg/kg, reduced growth hormone receptor mRNA levels by approximately 15% (p>0.05).

growth hormone receptor = test: [125I] hGH specific binding assay on liver microsomal membranes of treated mice
Method: Specific binding assays were carried out with liver tissue using iodinated human growth hormone [^125I] hGH.
Microsomal membrane preparations were obtained as follows. 400 mg of tissue powder was homogenized in cold homogenizing buffer (50 mM Tris/HCl, 250 mM sucrose, pH 7.4). This was centrifuged at 2000 rpm for 10 min at 3° C. and the supernatant was saved. This was centrifuged again at 15,000 rpm for 20 min. Pellets were resuspended in 0.5 ml of RRA buffer with inhibitor (50 mM Tris, 20 mM MgC12, pH 7.4). Microsomal preparation samples were stored at −80° C. until the specific binding assay.
The [^125I] hGH specific binding assay was done as follows. Four glass tubes were set up for each sample, two for (−), two for (+). Different sample and solutions were added in each tube as follows (i) 0.2 ml RRA buffer (50 mM Tris, 20 mM MgCl2, 0.1% BSA, pH 7.4); (ii) 0.1 ml membrane (1/2 or 1/4 dilution); (iii) 0.1 ml bGH (10 μg/ml) for the (+) tube or 0.1 ml RRA buffer for the (−) tube; and (iv) 0.1 ml [^125I]-hGH tracer.
Samples were incubated at 4° C. with shaking overnight. The reaction was stopped with 2.5 ml of cold RRA, and the sample centrifuged at 2800 rpm for 25 min at 4° C. Supernatant was aspirated and pellets counted using the γ-counter. The specific binding capacity was calculated as: CPM(−)-CPM(+) Protein content of the microsomal samples was determined by the BCA protein assay.

[2] = system: blood vessel profiles (BVPs) in the inner retina; test: Oxygen-induced retinopathy (ROP) in mice, blood vessel profiles in the inner retina
Method: Oxygen-induced retinopathy (also called retinopathy of prematurity or ROP) in laboratory animals is a widely used model for the study of retinal microvascular complications. Wilkinson-Berka et al., 2003, Invest. Opthalmol. V is Sci. 44, 974; Morayski, C. et al., 2000, Hypertension, 36,1099-1104.
To produce ROP, seven-day-old mice were placed in an infant incubator with their nursing mother in 75% oxygen from postnatal day 7 to day 12 as described in the literature. Smith et al., 1994, Invest Ophthalmol V is Sci 35, 101-111; Robinson et al., Proc Natl Acad Sci USA., 1996, May 14; 93, 4851-6. On postnatal day 12, the animals were returned to room air. Animals were sacrificed on postnatal day 17 when maximal neovascularization is observed. Sham-treated animals are handled similarly but are maintained in room air at all times.
Mice were dosed with antisense oligonucleotide in saline (total volume […]) at postnatal days 12, 13, 14, 15, and 16 or days 7, 8, 9, 11, 13, 15 and 17. Oligonucleotide was administered intraperitoneally at concentrations of 5, 10, 20 and 30 mg/kg. The mismatch control ISIS 261303 is also given.
Blood vessel profiles (BVPs) in the inner retina are quantitated in eyes from 36 experimental groups. Each group contains 8 retina from 8 different mice. Tables 7, 8 and 9 indicate 1) from which groups eyes have been collected to date for sectioning and 2) how many animals have had BVPs quantitated to date in each experimental group.
“Early intervention” (“Early I” in Tables 8-10) is used to describe mice pups that have been administered agents at postnatal days 7, 8, 9, 11, 13, 15 and 17 (7 doses). “Late intervention” (“Late I” in Tables 7-10) is used to describe mice pups administered agents at postnatal days 12, 13, 14, 15 and 16 (5 doses). All treatments were by intraperitoneal injection. Counting of blood vessel profiles (BVPs) in the inner retina is performed in a masked manner by investigators blinded to the experimental groups.

[3] = 30 mg/kg every second day for one week, liver membranes

In the case of “acaaagatccatacctgaga (eA*e[5mC]*eA*eA*eA*dG*dA*dT*d[5mC]*d[5mC]*dA*dT*dA*d[5mC]*d[5mC]*eT*eG*eA*eG*eA; antisense) [ISIS 227446]”, the “decrease in growth hormone receptor mRNA in liver” value ([1]; 30 mg/kg) is reported as 50%, the “reduction of growth hormone receptor mRNA levels in liver relative to saline control” value ([1]; 50 mg/kg) is reported as 72% and the “reduction of specific binding compared to saline, ¼ dilution” value (growth hormone receptor; 30 mg/kg) is reported as 39%. For the same substance, the “reduction of specific binding compared to saline, ½ dilution” value (growth hormone receptor; 30 mg/kg) was 26%, the “Specific binding/mg protein (cpm) ¼ dilution” value (growth hormone receptor; [3]) was 5546 ± 789 cpm and the “Specific binding/mg protein (cpm) ½ dilution” value (growth hormone receptor; [3]) was 4205 ± 534 cpm. For the same substance, the “growth hormone receptor levels (growth hormone binding activity), % of control (saline) group” value (growth hormone receptor; 30 mg/kg sc every second day for one week) was 61%, the “growth hormone receptor levels, % of the control (mismatch) group” value (growth hormone receptor; 30 mg/kg, ½ dilution experiment) was 59% and the “Average # BVPs” value ([2]; ROP + 5 mg/kg ip, Early I) was 28.25. The “Average # BVPs” value ([2]; ROP + 5 mg/kg ip, Late I) was 25.19, the “Average # BVPs” value ([2]; ROP + 10 mg/kg ip, Early I) was 23.18 and the “Average # BVPs” value ([2]; ROP + 30 mg/kg ip, Late I) was 24.24. The “Average # BVPs” value ([2]; Sham + 20 mg/kg ip, Early I (postnatal days 7, 8, 9, 11, 13, 15, 17)) was 9.97*, the “Average # BVPs” value ([2]; Sham + 30 mg/kg ip, Early I) was 10.94* and the “Average # BVPs” value ([2]; Sham + 30 mg/kg ip, Late I (postnatal days 12-16)) was 11.25*. For the same substance, the “effect on blood vessel profiles in sham-treated (no retinopathy) mice” value ([2]; early intervention) was “no effect”.
